# Laboratory results as given in patent US11384055B2 (BIOMARIN PHARMACEUTICAL INC., priority 2017, dated 2022).
# pIC50: −log10 of the molar value.
# Target: T1, Human GO (Homo sapiens, UniProt Q9UJM8)
# T1 construct: purchased Novus Biologicals NBP1-72412
# T1 sequence (Q9UJM8 1-370): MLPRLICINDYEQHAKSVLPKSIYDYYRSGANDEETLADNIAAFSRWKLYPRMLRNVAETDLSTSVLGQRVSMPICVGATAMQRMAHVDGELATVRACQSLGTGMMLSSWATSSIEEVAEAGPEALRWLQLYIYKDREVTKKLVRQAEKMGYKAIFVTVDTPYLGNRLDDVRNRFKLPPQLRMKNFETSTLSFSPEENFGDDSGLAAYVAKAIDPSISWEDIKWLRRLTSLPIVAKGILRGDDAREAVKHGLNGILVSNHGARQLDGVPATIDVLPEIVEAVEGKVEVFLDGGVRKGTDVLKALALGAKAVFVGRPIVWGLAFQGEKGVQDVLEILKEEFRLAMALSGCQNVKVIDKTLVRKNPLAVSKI
# Assay: GO enzymatic assay (coupled fluorescence/HRP assay, glycolate substrate)
# Format: biochemical
# Conditions: Table 2; read-out: Range (range of IC50 values calculated from the enzymatic assays)
# In short: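 Coupled HRP/fluorescence read-out of glycolate oxidation by human GO in 50 mM potassium phosphate buffer (pH 7). Inhibitors added across a concentration range.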
row,SMILES,pIC50
1,"O=C(OCOC(=O)C1CCCCC1)c1[nH]nnc1Sc1ccc(-c2ccc(N3CCCCC3)cc2)cc1 [Compound 317, ((cyclohexanecarbonyl)oxy)methyl 4-((4′-(piperidin-1-yl)-[1,1′-biphenyl]-4-yl)thio)-1H-1,2,3-triazole-5-carboxylate 2,2,2-trifluoroacetate]",< 5.00
2,"O=C(O)c1[nH]nnc1Sc1ccc(Cl)c(OC(F)(F)F)c1 [Compound 318, 4-((4-chloro-3-(trifluoromethoxy)phenyl)thio)-1H-1,2,3-triazole-5-carboxylic acid]",> 7.00
3,"O=C(O)c1[nH]nnc1Sc1ccc(-c2ccc(N3CCC(F)(F)CC3)cc2)cc1 [Compound 319, 4-((4′-(4,4-difluoropiperidin-1-yl)-[1,1′-biphenyl]-4-yl)thio)-1H-1,2,3-triazole-5-carboxylic acid 2,2,2-trifluoroacetate]",> 7.00
4,"O=C(O)c1[nH]nnc1SC1Cc2ccc(OC(F)(F)F)cc2C1 (centres unmarked) [Compound 320, 4-((5-(trifluoromethoxy)-2,3-dihydro-1H-inden-2-yl)thio)-1H-1,2,3-triazole-5-carboxylic acid]",> 7.00
5,"O=C(O)c1[nH]nnc1Sc1ccc(-c2ccc(OC(F)(F)F)cn2)cc1 [Compound 321, 4-((4-(5-(trifluoromethoxy)pyridin-2-yl)phenyl)thio)-1H-1,2,3-triazole-5-carboxylic acid 2,2,2-trifluoroacetate]",> 7.00
6,"O=C(O)c1[nH]nnc1CSc1ccc(-c2ccc(Cl)c(Cl)c2)cc1 [Compound 322, 4-(((3′,4′-dichloro-[1,1′-biphenyl]-4-yl)thio)methyl)-1H-1,2,3-triazole-5-carboxylic acid 2,2,2-trifluoroacetate]",> 7.00
7,"O=C(O)c1[nH]nnc1SC1CCN(c2ccc(Cl)c(Cl)c2)CC1 [Compound 323, 4-((1-(3,4-dichlorophenyl)piperidin-4-yl)thio)-1H-1,2,3-triazole-5-carboxylic acid 2,2,2-trifluoroacetate]",> 7.00
8,O=C(O)c1[nH]nnc1SC1CCN(c2ccc(C(F)(F)F)cc2)CC1 [Compound 324],> 7.00
9,"O=C(O)c1[nH]nnc1SC1CCN(c2cc(Cl)cc(Cl)c2)CC1 [Compound 325, 4-((1-(3,5-dichlorophenyl)piperidin-4-yl)thio)-1H-1,2,3-triazole-5-carboxylic acid 2,2,2-trifluoroacetate]",> 7.00
10,"O=C(O)c1[nH]nnc1SC1CCC(c2cccc(OC(F)(F)F)c2)CC1 (centres unmarked) [Compound 326, 4-((4-(3-(trifluoromethoxy)phenyl)cyclohexyl)thio)-1H-1,2,3-triazole-5-carboxylic acid]",> 7.00
11,"O=C(O)c1[nH]nnc1SC1CCC(c2cccc(C(F)(F)F)c2)CC1 (centres unmarked) [Compound 327, 4-((4-(3-(trifluoromethyl)phenyl)cyclohexyl)thio)-1H-1,2,3-triazole-5-carboxylic acid]",> 7.00
12,"O=C(O)c1[nH]nnc1CSc1ccc(-c2cc(Cl)cc(Cl)c2)cc1 [Compound 328, 4-(((3′,5′-dichloro-[1,1′-biphenyl]-4-yl)thio)methyl)-1H-1,2,3-triazole-5-carboxylic acid]",> 7.00
13,"O=C(O)c1[nH]nnc1CSc1ccc(-c2ccc(OC(F)(F)F)c(Cl)c2)cc1 [Compound 329, 4-(((3′-chloro-4′-(trifluoromethoxy)-[1,1′-biphenyl]-4-yl)thio)methyl)-1H-1,2,3-triazole-5-carboxylic acid]",> 7.00
14,"O=C(O)c1[nH]nnc1SC1CCN(c2cc(Cl)ccc2Cl)CC1 [Compound 330, 4-((1-(2,5-dichlorophenyl)piperidin-4-yl)thio)-1H-1,2,3-triazole-5-carboxylic acid]",> 7.00
15,"O=C(O)c1[nH]nnc1S[C@H]1CC[C@@H](c2cc(Cl)cc(Cl)c2)CC1 [Compound 331, 4-(((cis)-4-(3,5-dichlorophenyl)cyclohexyl)thio)-1H-1,2,3-triazole-5-carboxylic acid]",> 7.00
16,"O=C(O)c1[nH]nnc1S[C@H]1CC[C@@H](c2ccc(C(F)(F)F)cc2)CC1 [Compound 332, 4-(((cis)-4-(4-(trifluoromethyl)phenyl)cyclohexyl)thio)-1H-1,2,3-triazole-5-carboxylic acid]",> 7.00
17,"CN(Cc1nn[nH]c1C(=O)O)c1ccc(-c2ccc(OC(F)(F)F)cc2)cc1 [Compound 333, 4-((methyl(4′-(trifluoromethoxy)-[1,1′-biphenyl]-4-yl)amino)methyl)-1H-1,2,3-triazole-5-carboxylic acid 2,2,2-trifluoroacetate]",> 7.00
18,"O=C(O)c1[nH]nnc1-c1cc(OCC2CC2)cc(C(F)(F)F)c1 [Compound 334, 4-(3-(cyclopropylmethoxy)-5-(trifluoromethyl)phenyl)-1H-1,2,3-triazole-5-carboxylic acid]",> 7.00

row,SMILES,pIC50
1,"O=C(O)c1[nH]nnc1[S+]([O-])c1ccc(Cl)c(OCC2CCCCC2)c1 (centres unmarked) [Compound 335, 4-((4-chloro-3-(cyclohexylmethoxy)phenyl)sulfinyl)-1H-1,2,3-triazole-5-carboxylic acid]",5.00 to 6.00
2,"O=C(O)c1[nH]nnc1Sc1ccc(Cl)c(OCC2CCCCC2)c1 [Compound 336, 4-((4-chloro-3-(cyclohexylmethoxy)phenyl)thio)-1H-1,2,3-triazole-5-carboxylic acid]",> 7.00
3,"O=C(O)c1[nH]nnc1S[C@H]1CC[C@@H](c2cc(Cl)cc(OC(F)(F)F)c2)CC1 [Compound 337, 4-(((cis)-4-(3-chloro-5-(trifluoromethoxy)phenyl)cyclohexyl)thio)-1H-1,2,3-triazole-5-carboxylic acid]",> 7.00
4,"O=C(O)c1[nH]nnc1SC1CCN(c2cc(Cl)cc(OC(F)(F)F)c2)CC1 [Compound 338, 4-((1-(3-chloro-5-(trifluoromethoxy)phenyl)piperidin-4-yl)thio)-1H-1,2,3-triazole-5-carboxylic acid]",> 7.00
5,"O=C(O)c1[nH]nnc1Sc1ccc(N2CCC(F)(F)CC2)cc1 [Compound 339, 4-((4-(4,4-difluoropiperidin-1-yl)phenyl)thio)-1H-1,2,3-triazole-5-carboxylic acid 2,2,2-trifluoroacetate]",> 7.00
6,"O=C(O)c1[nH]nnc1SC1CCC(c2cccc(N3CCCCC3)c2)CC1 (centres unmarked) [Compound 340, 4-((4-(3-(piperidin-1-yl)phenyl)cyclohexyl)thio)-1H-1,2,3-triazole-5-carboxylic acid 2,2,2-trifluoroacetate]",> 7.00
7,"CN1CCN(c2ccc([C@H]3CC[C@@H](Sc4nn[nH]c4C(=O)O)CC3)cc2)CC1 [Compound 341, 4-(((cis)4-(4-(4-methylpiperazin-1-yl)phenyl)cyclohexyl)thio)-1H-1,2,3-triazole-5-carboxylic acid 2,2,2-trifluoroacetate]",> 7.00
8,"O=C(O)c1[nH]nnc1Sc1ccc(-c2ccc(N3CCCCC3)cc2)c(Cl)c1 [Compound 342, 4-((2-chloro-4′-(piperidin-1-yl)-[1,1′-biphenyl]-4-yl)thio)-1H-1,2,3-triazole-5-carboxylic acid 2,2,2-trifluoroacetate]",> 7.00
9,"O=C(O)c1[nH]nnc1Sc1cc(OCC2CCCC2)ccc1Cl [Compound 343, 4-((2-chloro-5-(cyclopentylmethoxy)phenyl)thio)-1H-1,2,3-triazole-5-carboxylic acid]",> 7.00
10,"N#Cc1ccc(N2CCC(Sc3nn[nH]c3C(=O)O)CC2)cc1 [Compound 344, 4-((1-(4-cyanophenyl)piperidin-4-yl)thio)-1H-1,2,3-triazole-5-carboxylic acid 2,2,2-trifluoroacetate]",> 7.00
11,"O=C(O)c1[nH]nnc1S[C@H]1CC[C@@H](c2ccc(Cl)c(Cl)c2)CC1 [Compound 345, 4-(((cis)-4-(3,4-dichlorophenyl)cyclohexyl)thio)-1H-1,2,3-triazole-5-carboxylic acid 2,2,2-trifluoroacetate]",> 7.00
12,"O=C(O)c1[nH]nnc1SC1CCN(c2ccc(OC(F)(F)F)c(Cl)c2)CC1 [Compound 346, 4-((1-(3-chloro-4-(trifluoromethoxy)phenyl)piperidin-4-yl)thio)-1H-1,2,3-triazole-5-carboxylic acid]",> 7.00
13,"O=C(O)c1[nH]nnc1S[C@H]1CC[C@@H](c2ccc(N3CCCC3)cc2)CC1 [Compound 347, 4-(((cis)-4-(4-(pyrrolidin-1-yl)phenyl)cyclohexyl)thio)-1H-1,2,3-triazole-5-carboxylic acid 2,2,2-trifluoroacetate]",> 7.00
14,"O=C(O)c1[nH]nnc1S[C@H]1CC[C@@H](c2ccc(OC(F)(F)F)cc2)CC1 [Compound 348, 4-(((cis)-4-(4-(trifluoromethoxy)phenyl)cyclohexyl)thio)-1H-1,2,3-triazole-5-carboxylic acid]",> 7.00
15,"CC1CCCCN1c1ccc(-c2ccc(Sc3nn[nH]c3C(=O)O)cc2)cc1 (centres unmarked) [Compound 349, 4-((4′-(2-methylpiperidin-1-yl)-[1,1′-biphenyl]-4-yl)thio)-1H-1,2,3-triazole-5-carboxylic acid 2,2,2-trifluoroacetate]",> 7.00
16,"O=C(O)c1[nH]nnc1CSC1CCN(c2cc(Cl)cc(Cl)c2)CC1 [Compound 350, 4-(((1-(3,5-dichlorophenyl)piperidin-4-yl)thio)methyl)-1H-1,2,3-triazole-5-carboxylic acid 2,2,2-trifluoroacetate]",> 7.00
17,"O=C(O)c1[nH]nnc1Sc1cccc(OC2CCCC2)c1 [Compound 351, 4-((3-(cyclopentyloxy)phenyl)thio)-1H-1,2,3-triazole-5-carboxylic acid 2,2,2-trifluoroacetate]",6.00 to 7.00
